Source: patent US12662476B2, “Herbicidal thiazole compounds” (SYNGENTA CROP PROTECTION AG, priority 2019, dated 2026)

Legend:
Type in all cases: in vivo
[1] = system: Amaranthus retoflexus (AMARE); test: Post-emergence herbicidal glasshouse test; conditions: sprayed after 8 days cultivation, 250 g/ha, evaluated after 13 days, five-point scale
Procedure: (§1) Seeds of a variety of test species are sown in standard soil in pots Amaranthus retoflexus (AMARE), Echinochloa crus-galli (ECHCG), Setaria faberi (SETFA)). After cultivation for one day (pre-emergence) or after 8 days cultivation (post-emergence) under controlled conditions in a glasshouse (at 24/16° C., day/night; 14 hours light; 65% humidity), the plants are sprayed with an aqueous spray solution derived from the formulation of the technical active ingredient in acetone/water (50:50) solution containing 0.5% Tween™ 20 (polyoxyethylene sorbitan monolaurate, CAS RN 9005-64-5). Compounds are applied at 250 g/ha unless otherwise stated. The test plants are then grown in a glasshouse under controlled conditions in a glasshouse (at 24/16° C., day/night; 14 hours light; 65% humidity) and watered twice daily. After 13 days for pre- and post-emergence, the test is evaluated for the percentage damage caused to the plant. The biological activities are shown in the following table on a five-point scale (5=81-100%; 4=61-80%; 3=41-60%; 2=21-40%; 1=0-20%).

[2] = system: Echinochloa crus-galli (ECHCG); test: Post-emergence herbicidal glasshouse test; conditions: sprayed after 8 days cultivation, 250 g/ha, evaluated after 13 days, five-point scale
Procedure: as §1

Setaria faberi (SETFA) [3] = test: Post-emergence herbicidal glasshouse test; conditions: sprayed after 8 days cultivation, 250 g/ha, evaluated after 13 days, five-point scale
Procedure: as §1

[4] = system: Amaranthus retoflexus (AMARE); test: Pre-emergence herbicidal glasshouse test; conditions: sprayed after one day cultivation, 250 g/ha, evaluated after 13 days, five-point scale
Procedure: as §1

[5] = system: Echinochloa crus-galli (ECHCG); test: Pre-emergence herbicidal glasshouse test; conditions: sprayed after one day cultivation, 250 g/ha, evaluated after 13 days, five-point scale
Procedure: as §1

Setaria faberi (SETFA) [6] = test: Pre-emergence herbicidal glasshouse test; conditions: sprayed after one day cultivation, 250 g/ha, evaluated after 13 days, five-point scale
Procedure: as §1

| SMILES | percentage damage caused to the plant, AMARE [1] | percentage damage caused to the plant, ECHCG [2] | percentage damage caused to the plant, SETFA (Setaria faberi (SETFA) [3]) | percentage damage caused to the plant, AMARE [4] | percentage damage caused to the plant, ECHCG [5] | percentage damage caused to the plant, SETFA (Setaria faberi (SETFA) [6]) |
| --- | --- | --- | --- | --- | --- | --- |
| FC(F)c1cc(-c2c(Br)cccc2Oc2ncc(Cl)s2)on1 [Compound 1.023] | 5 (5=81-100%) | 5 (5=81-100%) | 5 (5=81-100%) | 5 (5=81-100%) | 5 (5=81-100%) | 5 (5=81-100%) |
| FC(F)c1cc(-c2c(Br)cccc2Oc2ncc(Br)s2)on1 [Compound 1.024] | 5 (5=81-100%) | 5 (5=81-100%) | 5 (5=81-100%) | 4 (4=61-80%) | 5 (5=81-100%) | 4 (4=61-80%) |
| FC(F)c1cc(-c2c(Cl)cccc2Oc2ncc(Br)s2)on1 [Compound 1.025] | 5 (5=81-100%) | 5 (5=81-100%) | 5 (5=81-100%) | 5 (5=81-100%) | 5 (5=81-100%) | 5 (5=81-100%) |
| FC(F)c1cc(-c2ccccc2Oc2ncc(Cl)s2)on1 [Compound 1.026] | 4 (4=61-80%) | 4 (4=61-80%) | 4 (4=61-80%) | 4 (4=61-80%) | 4 (4=61-80%) | 4 (4=61-80%) |
| FC(F)c1cc(-c2c(Br)cccc2Oc2nc(Cl)c(Cl)s2)on1 [Compound 1.028] | 4 (4=61-80%) | 4 (4=61-80%) | 4 (4=61-80%) | 2 (2=21-40%) | 4 (4=61-80%) | 4 (4=61-80%) |
| Fc1cccc(Oc2nc(Cl)c(Cl)s2)c1-c1cc(C(F)F)no1 [Compound 1.029] | 5 (5=81-100%) | 1 (1=0-20%) | 2 (2=21-40%) | 5 (5=81-100%) | 1 (1=0-20%) | 2 (2=21-40%) |
| FC(F)c1cc(-c2c(Br)cccc2Oc2nc(C(F)F)c(Cl)s2)on1 [Compound 1.030] | 1 (1=0-20%) | 1 (1=0-20%) | 1 (1=0-20%) | 1 (1=0-20%) | 1 (1=0-20%) | 1 (1=0-20%) |
| Fc1cccc(Sc2ncc(Cl)s2)c1-c1cc(C(F)F)no1 [Compound 1.031, 5-[2-(5-chlorothiazol-2-yl)sulfanyl-6-fluoro-phenyl]-3-(difluoromethyl)isoxazole] | 4 (4=61-80%) | 2 (2=21-40%) | 3 (3=41-60%) | 3 (3=41-60%) | 2 (2=21-40%) | 2 (2=21-40%) |
| FC(F)c1cc(-c2c(Cl)cccc2Oc2nc(Cl)c(Cl)s2)on1 [Compound 1.032] | 5 (5=81-100%) | 2 (2=21-40%) | 4 (4=61-80%) | 5 (5=81-100%) | 1 (1=0-20%) | 1 (1=0-20%) |
| Fc1cccc(Oc2nc(C(F)(F)F)cs2)c1-c1cc(C(F)F)no1 [Compound 1.033] | 4 (4=61-80%) | 4 (4=61-80%) | 4 (4=61-80%) | 5 (5=81-100%) | 4 (4=61-80%) | 5 (5=81-100%) |
| FC(F)c1cc(-c2c(Br)cccc2Oc2nc(C(F)(F)F)cs2)on1 [Compound 1.034] | 4 (4=61-80%) | 3 (3=41-60%) | 4 (4=61-80%) | 4 (4=61-80%) | 3 (3=41-60%) | 5 (5=81-100%) |
| Fc1cccc(Oc2nc(C(F)F)c(Cl)s2)c1-c1cc(C(F)F)no1 [Compound 1.035] | 2 (2=21-40%) | 1 (1=0-20%) | 1 (1=0-20%) | 1 (1=0-20%) | 1 (1=0-20%) | 1 (1=0-20%) |
